The values below come from paper PMC10707468, “Pharmacokinetics of Novel Dopamine Transporter Inhibitor CE-123 and Modafinil with a Focus on Central Nervous System Distribution” (International Journal of Molecular Sciences, 2023).

Data set [1] in a line: Equilibrium dialysis, plasma protein binding. It counts as in vitro ADME, rat. Conditions: for free (unbound) in plasma / Fraction unbound in plasma, fu,plasma: rat plasma; for Fraction unbound in plasma, fu,plasma / fraction unbound at 5 h, 10 µM: 10 µM, 5 h, 37 °C, plasma with 10% DMF; for fraction unbound at 5 h, 10 µM: rat, undiluted rat plasma containing 10% DMF, pH 7.4, rat plasma, read-out: Fraction unbound in plasma, fu,plasma. The procedure: (§1) A Teflon 96-well plate (model HTD96b, HTDialysis LLC, Gales Ferry, CT, USA) was used in all tissue-binding experiments. Th evaluation of PPB was determined according to van Liempd et al. (2011) and BTB according to the previously published protocols. […] The whole brain tissue from three rats was individually homogenized in 9 volumes of phosphate-buffered saline (PBS), pH 7.4. […] Then, 100 µL of spiked plasma or brain tissue homogenate in triplicate was dialyzed against an equal volume of PBS, pH 7.4, for 5 h at 37 °C and 200 rpm. Furthermore, 50 µL was taken from both sides of the membrane at the end of incubation. The unbound fraction of the compounds in the plasma (fu,plasma) or in the diluted (D) brain homogenate (fu,hD) was calculated according to the following equation:(1) fu,plasma or fu,hD=Cbuffer/Ctissue where Cbuffer represents the concentration of the compound measured in the buffer and Ctissue is the concentration measured in the plasma or brain tissue homogenate. Due to dilution, fu,hD is usually higher than the actual fu,brain. Thus, fu,hD was corrected for the dilution factor (D), which is in this case 10 times. (2) fu,brain=fu,hD/D+fu,hD−D·fu,hD
In general terms: Equilibrium dialysis compares concentrations on both sides of a semipermeable membrane.

Data set [2] can be described thus: Equilibrium dialysis, brain tissue binding. It counts as in vitro ADME, rat. Conditions: for fraction unbound at 5 h, 10 µM: whole brain homogenate (1:9 in PBS), rat brain homogenate 1:9 in PBS pH 7.4, 10 µM, corrected for dilution, read-out: Fraction unbound in brain homogenate, fu,brain. How it is done:
as §1

A short description of data set [3]: In vitro metabolic stability in human liver microsomes. It counts as in vitro ADME. Conditions: for % of the parent drug remaining / half-life at 1 µM / microsomal CLint at 1 µM: 1 µM; for % of the parent drug remaining: 60 min incubation; for half-life at 1 µM / microsomal CLint at 1 µM: human, human liver microsomes, pH 7.4; for half-life at 1 µM: 0.5 mg/mL protein, read-out: half-life (t1/2); for microsomal CLint at 1 µM: read-out: intrinsic clearance (CLint). How it is done: An in vitro metabolism assay to study the phase I metabolism in the HLMs was in-house-developed. Optimization of the protocol included the test compound concentration (1, 5, 10 m and 50 µM) and extraction solvents (ACN and MeOH). […] The metabolic assay was initiated by the addition of 10 mM NADPH to the reaction solution and terminated after 0, 2.5, 5, 15, 30, 45, and 60 min via the addition of 200 µL of ice-cold MeOH containing the IS solution. The samples were than vortexed and spun for 15 min (14,000× g, 4 °C). The supernatant was collected, evaporated to dryness using the Concentrator plus (Eppendorf), and reconstituted with 100 µL of ACN/0.1% FA in water 10:90 (v:v). To ensure that the assay was performing adequately, the incubation of 1 µM diazepam at the same assay conditions as described was conducted, and the formation of its metabolites temazepam and nordazepam was monitored. A negative control included the absence of NADPH, the test compound, or HLMs during assay. […] The metabolic stability curves of the tested compounds were established by plotting the incubation time against the natural logarithm of the % parent drug remaining. The slope (k) of the linear part was utilized for the in vitro half-life (t1/2, min) as ln2/k. The V (µL/mg) was calculated as the volume of the reaction solution (100 µL) divided by the protein amount in the incubation (0.5 mg). The protein amount was predetermined by the supplier and the content was checked by using a Pierce™ BCA Protein Assay Kit (Thermo Fisher Scientific, Vienna, Austria) for each freshly opened tube. The intrinsic clearance (CLint, µL/min/mg) was calculated according to the following equation:(7) CLint=0.693/t1/2·V […]
Background: Liver microsomes are a subcellular fraction often used to study metabolism.

The nature of data set [4]: In vitro plasma stability assay. It counts as in vitro ADME. Conditions: rat plasma. How it is done:
In vitro plasma stability assay was used in the scope of the validation studies. Briefly, 40 μL of blank rat plasma or blank rat plasma containing 10% DMF as an inhibitor was first pre-warmed for 5 min at 37 °C using a Thermomixer® comfort (Eppendorf, Hamburg, Germany). […] The reaction was terminated after 0, 1, 2, and 4 h, via the addition of 50 μL of ice-cold ACN containing the IS solution. The samples were centrifuged for 10 min at 3000× g at 4 °C. The supernatant of all samples was diluted with 0.1% FA in water, 1:2 (v:v), and 10 µL of the sample was injected onto the LC–HRMS system.

A further data set has as its system DAT. Conditions: read-out: Half-maximal inhibitory concentration, IC50, cited from earlier work.
In data set [5] the test system is cerebEND in vitro model of the blood–brain barrier. Conditions: 100 µM CE-123 and modafinil, Transwell cerebEND, blank inserts deducted; cited from earlier work.
For the next data set, the system named is CYP3A. In words: CYP P450 inhibition in HLMs (Eurofins Panlabs). Conditions: S-CE-123 10 µM. It counts as in vitro ADME, human. How it is done: (§2) In vitro metabolism assays for the cytochrome (CYP) P450 inhibition of S-CE-123 was outsourced to Eurofins Panlabs (St. Charles, MO, USA, study number 100050638). Briefly, 0.1 mg/mL of the HLMs was incubated for 10 min at 37 °C with substrate (10 µM phenacetin for CYP1A, 100 µM bupropion for CYP2B6, 10 µM amodiaquine for CYP2C8, 10 µM diclofenac for CYP2C9, 0.5 µM omeprazole for CYP2C19, 5 µM dextromethorphan for CYP2D6, 5 µM midazolam for CYP3A, and 50 µM testosterone for CYP3A4) in the presence/absence of S-CE-123 (10 µM). The peak areas corresponding to the metabolite of each substrate were recorded. The percent of control activity was then calculated by comparing the peak area obtained in the presence of the test compound to that obtained in the absence of the test compound. Subsequently, the percent inhibition was calculated by subtracting the percent control activity from 100 for each compound. The IC50 values (concentration causing a half-maximal inhibition of control values) were determined using non-linear regression analysis of the concentration–response curve using Hill equation curve fitting.

The target of a further data set is human DAT. The settings on record: cell lines expressing human DAT; read-out: Inhibitory constant, Ki; cited from earlier work.
The test system of the next data set is SERT. Also on record: method as in PMID 29410048. Conditions: cited from earlier work.
The subject of the next data set is NET. Also on record: method as in PMID 29410048. The settings on record: cited from earlier work.
Another data set deals with CYP2C19 (Homo sapiens, UniProt P33261). In words: CYP P450 inhibition in HLMs (Eurofins Panlabs). It counts as in vitro ADME. On the set-up: from tissue; host or cells: human liver microsomes (HLMs). The settings on record: S-CE-123 10 µM. The procedure:
as §2

Another data set deals with CYP2C9 (Homo sapiens, UniProt P11712). Description: CYP P450 inhibition in HLMs (Eurofins Panlabs). It counts as in vitro ADME. On the set-up: from tissue; host or cells: human liver microsomes (HLMs). The settings on record: microsomes, S-CE-123 10 µM, range given for CYP2C9, CYP1A and CYP2D6 together, read-out: inhibition of control values. How it is done:
as §2

Like-named read-outs stand apart in the source and are kept apart here.

Chain of CYP2C9 (P11712 whole entry): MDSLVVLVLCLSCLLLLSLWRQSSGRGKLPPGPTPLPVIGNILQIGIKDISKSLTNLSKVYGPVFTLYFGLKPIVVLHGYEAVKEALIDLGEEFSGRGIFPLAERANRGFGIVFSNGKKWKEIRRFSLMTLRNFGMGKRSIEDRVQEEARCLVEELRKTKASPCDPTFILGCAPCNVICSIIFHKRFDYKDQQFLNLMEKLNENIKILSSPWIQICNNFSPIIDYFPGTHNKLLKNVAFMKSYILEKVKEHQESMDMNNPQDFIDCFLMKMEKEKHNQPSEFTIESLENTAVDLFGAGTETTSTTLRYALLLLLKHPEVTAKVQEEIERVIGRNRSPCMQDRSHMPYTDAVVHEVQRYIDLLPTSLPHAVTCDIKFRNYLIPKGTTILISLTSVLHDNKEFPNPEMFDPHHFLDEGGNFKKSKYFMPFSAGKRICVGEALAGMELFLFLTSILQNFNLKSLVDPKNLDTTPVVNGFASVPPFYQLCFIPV
Chain of CYP2C19 (P33261 whole entry): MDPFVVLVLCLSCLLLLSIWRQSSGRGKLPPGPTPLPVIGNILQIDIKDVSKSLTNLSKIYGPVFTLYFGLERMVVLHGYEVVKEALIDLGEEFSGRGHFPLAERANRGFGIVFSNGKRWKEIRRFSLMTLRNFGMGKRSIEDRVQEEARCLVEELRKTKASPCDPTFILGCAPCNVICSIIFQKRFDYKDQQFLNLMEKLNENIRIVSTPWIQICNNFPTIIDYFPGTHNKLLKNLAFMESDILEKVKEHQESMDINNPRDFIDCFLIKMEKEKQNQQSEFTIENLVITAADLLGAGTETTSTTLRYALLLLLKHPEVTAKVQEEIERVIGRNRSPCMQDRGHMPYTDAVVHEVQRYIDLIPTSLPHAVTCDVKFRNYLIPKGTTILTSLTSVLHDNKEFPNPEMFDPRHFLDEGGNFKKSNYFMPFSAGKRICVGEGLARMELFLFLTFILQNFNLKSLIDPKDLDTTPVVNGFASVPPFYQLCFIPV

As usually defined, the fraction unbound is the share of the substance not bound to proteins or other matrix. As for `NC(=O)C[S@@+]([O-])C(c1ccccc1)c1ccccc1` [R-modafinil, reference compound], in data set [1], the “free (unbound) in plasma” value worked out at 80%; the “Fraction unbound in plasma, fu,plasma” value turned out to be 0.797 ± 0.15 unitless; the fraction unbound at 5 h, 10 µM stood at 0.79. Also, the fraction unbound at 5 h, 10 µM in data set [2] was found to be 0.23 ± 0.1. Also, in data set [3] (HLMs), the “% of the parent drug remaining” value stood at 90%, the half-life at 1 µM turned out to be 364 min and the microsomal CLint at 1 µM came out at […]. In addition, in data set [3] (HLMs, 5, 10 and 50 µM), the metabolized is at most 10%. For the same molecule, in data set [4] (4 h incubation at 37 °C), the R-modafinil level remaining entry is on record as “about 50%”. The metabolized in [4] (after 4 h at 37 °C) was 50%. Besides, in the data set on DAT (ref Loland et al. 2012 [27]), the IC50 is […]. In addition, in [5], the “Pe (permeability coefficient)” value is 0.0023 cm/min.
In general, Ki refers to the equilibrium dissociation constant of an inhibitor or competing ligand from its target. By inhibition is commonly meant the relative decrease from the control value, in per cent. Consider `[O-][S@@+](Cc1cncs1)C(c1ccccc1)c1ccccc1` [S-CE-123], for which, in data set [1], the “free (unbound) in plasma” value is 25%; the “Fraction unbound in plasma, fu,plasma” value came to 0.252 ± 0.023 unitless; the fraction unbound at 5 h, 10 µM turned out to be 0.25. Moreover, in data set [2] (rat brain homogenate), the “brain tissue binding capacity, fold higher compared to R-modafinil” value is on record as 6.6 fold. Further, the free fraction (fraction unbound) at 5 h, 10 µM in data set [2] was found to be 0.035 ± 0.012. Moreover, in data set [3] (HLMs), the “fold faster metabolism compared to R-modafinil” value turned out to be 9.3 fold, the “% of the parent drug remaining” value amounted to 35%, the half-life at 1 µM was found to be 39 min and the microsomal CLint at 1 µM was found to be 3.6 µL/min/mg. For the same molecule, the “inhibition of control values” in the data set on CYP3A is reported as “Low inhibition”. For the same molecule, the Ki on human DAT is 610 nM. In addition, the IC50 with DAT (ref Kristofova et al. 2018 [36]) was 4.6 µM. In addition, the “activity on SERT” value in the data set on SERT is “negligible activity”. In the data set on NET, the “activity on NET” value is on record as “negligible activity”. Moreover, the “Pe (permeability coefficient)” value in data set [5] was 0.0030 cm/min. Further, on CYP2C19, the “inhibition of control values” is “Low inhibition”. The inhibition at 10 min, 10 µM on CYP2C9 lay in the range of 47 to 68%.
